Measurements published in paper PMC10178204, “Peptaibol Analogs Show Potent Antibacterial Activity against Multidrug Resistant Opportunistic Pathogens” (International Journal of Molecular Sciences, 2023).
Values after ≈ are worked out from the molar mass of the structure shown. Values joined by “and” are separate entries in the source; they are usually repeats but may differ in a detail not shown here. Equal values may be shown once. Non-standard residues stand in square brackets, D forms with d. Residues, ends and D or L forms follow the SMILES beside them. *: point of attachment. Leu(ol) = CC(C)C[C@H](N)CO; Octanoyl = CCCCCCCC(=O)*; Aib = CC(C)(N)C(=O)O

Columns and labels:
[1] = system: P. aeruginosa 101/1477 (IMP-1); details: MHB, 5 × 10^5 CFU/mL, 18 h, 35 °C, triplicate
How it was run: (§1)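 Peptides came from DMSO stocks of 25 mg/mL. Strains were clinical MDR isolates producing metallo-β-lactamase (P. aeruginosa) or class D carbapenemase (A. baumannii).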

[2] = system: P. aeruginosa VA-182/00 (VIM-2); details: MHB, 5 × 10^5 CFU/mL, 18 h, 35 °C, triplicate
How it was run: as §1

[3] = system: A. baumannii SI-310 (OXA-24); details: colistin-resistant isolate; MHB, 5 × 10^5 CFU/mL, 18 h, 35 °C, triplicate
How it was run: as §1

[4] = system: S. aureus ATCC 43300 (MRSA); details: MHB, 5 × 10^5 CFU/mL, 18 h, 35 °C, triplicate
[5] = system: A. baumannii SI-12 (OXA-23); details: MHB, 5 × 10^5 CFU/mL, 18 h, 35 °C, triplicate
How it was run: as §1

[6] = system: P. aeruginosa 506/99 (VIM-2); details: MHB, 5 × 10^5 CFU/mL, 18 h, 35 °C, triplicate
How it was run: as §1

[7] = system: A. baumannii SI-648 (OXA-23, OXA-51-like); details: MHB, 5 × 10^5 CFU/mL, 18 h, 35 °C, triplicate
How it was run: as §1

[8] = system: P. aeruginosa VR-143/97 (VIM-1); details: MHB, 5 × 10^5 CFU/mL, 18 h, 35 °C, triplicate
How it was run: as §1

[9] = system: Klebsiella pneumoniae ATCC 13833; details: MHB, 5 × 10^5 CFU/mL, 18 h, 35 °C, triplicate
How it was run: (§2)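 Broth microdilution in Mueller–Hinton broth, run in triplicate, inoculum 5 × 10^5 CFU/mL per CLSI M07-A10; MIC and MBC both determined. Peptides dissolved in DMSO at 25 mg/mL as stock.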

[10] = system: reference Gram-positive and Gram-negative strains; details: for lowest MIC: lowest value over the eight reference strains
How it was run: as §2

[11] = system: Pseudomonas aeruginosa ATCC 27853; details: MHB, 5 × 10^5 CFU/mL, 18 h, 35 °C, triplicate
How it was run: as §2

[12] = system: Staphylococcus aureus ATCC 25923; details: MHB, 5 × 10^5 CFU/mL, 18 h, 35 °C, triplicate
How it was run: as §2

[13] = system: Escherichia coli CCUGT; details: MHB, 5 × 10^5 CFU/mL, 18 h, 35 °C, triplicate
How it was run: as §2

[14] = system: Enterococcus faecalis ATCC 29212; details: MHB, 5 × 10^5 CFU/mL, 18 h, 35 °C, triplicate
How it was run: as §2

[15] = system: Acinetobacter baumannii ATCC 17978; details: for MBC Aba / MIC Aba: MHB, 5 × 10^5 CFU/mL, 18 h, 35 °C, triplicate; for MIC against A. baumannii, in molar units: corresponding to 2 and 8 μg/mL
How it was run: as §2

[16] = system: Bacillus subtilis ATCC 6633; details: MHB, 5 × 10^5 CFU/mL, 18 h, 35 °C, triplicate
How it was run: as §2

[17] = system: Streptococcus pyogenes ATCC 12344; details: MHB, 5 × 10^5 CFU/mL, 18 h, 35 °C, triplicate
How it was run: as §2

[18] = system: blood agar plate (Columbia CNA Agar); assay: Hemolysis on blood agar plate; details: 50 μg spotted on blood agar, 35 ± 2 °C, 24 h
How it was run: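 Peptides (50 μg, from 25 mg/mL DMSO solution) spotted on Columbia CNA blood agar, incubated at 35 ± 2 °C for 24 h. Hemolysis zone diameter measured visually, averaged over triplicates. Triton X-100 positive, DMSO negative control.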

SMILES	MBC P. aeruginosa 101/1477 (IMP-1) [1] [µg/mL]	MIC P. aeruginosa 101/1477 (IMP-1) [1] [µg/mL]	MBC P. aeruginosa VA-182/00 (VIM-2) [2] [µg/mL]	MIC P. aeruginosa VA-182/00 (VIM-2) [2] [µg/mL]	MBC A. baumannii SI-310 (OXA-24) [3] [µg/mL]	MIC A. baumannii SI-310 (OXA-24) [3]	MBC S. aureus ATCC 43300 (MRSA) [4] [µg/mL]	MIC S. aureus ATCC 43300 (MRSA) [4] [µg/mL]	MBC A. baumannii SI-12 (OXA-23) [5] [µg/mL]	MIC A. baumannii SI-12 (OXA-23) [5] [µg/mL]	MBC P. aeruginosa 506/99 (VIM-2) [6] [µg/mL]	MIC P. aeruginosa 506/99 (VIM-2) [6] [µg/mL]	MBC A. baumannii SI-648 (OXA-23, OXA-51-like) [7] [µg/mL]	MIC A. baumannii SI-648 (OXA-23, OXA-51-like) [7]	MBC P. aeruginosa VR-143/97 (VIM-1) [8] [µg/mL]	MIC P. aeruginosa VR-143/97 (VIM-1) [8] [µg/mL]	MBC Kpn [9] [µg/mL]	MIC Kpn [9] [µg/mL]	lowest MIC [10] [µg/mL]	MBC Pae [11] [µg/mL]	other results
CCCCCCCC(=O)NC(C)(C)C(=O)N[C@@H](CCCCN)C(=O)N[C@@H](CC(C)C)C(=O)NC(C)(C)C(=O)N[C@@H](CCCCN)C(=O)N[C@@H](CCCCN)C(=O)N[C@@H](CC(C)C)C(=O)NC(C)(C)C(=O)N[C@@H](CCCCN)C(=O)N[C@H](C(=O)N[C@H](CO)CC(C)C)[C@@H](C)CC [Peptide 7, 1-Oct-Aib-Lys-Leu-Aib-Lys-Lys-Leu-Aib-Lys-Ile-Lol] (Octanoyl-[Aib]KL[Aib]KKL[Aib]KI[Leu(ol)])	8 (≈ 5.92 µM)	8 (≈ 5.92 µM)	8 (≈ 5.92 µM)	8 (≈ 5.92 µM)	4 (≈ 2.96 µM)	4 μg/mL and 4/4 μg/mL	8 (≈ 5.92 µM)	4 (≈ 2.96 µM)	4 (≈ 2.96 µM)	2 (≈ 1.48 µM)	8 (≈ 5.92 µM)	8 (≈ 5.92 µM)	4 (≈ 2.96 µM)	2 µg/mL (≈ 1.48 µM)	8 (≈ 5.92 µM)	8 (≈ 5.92 µM)	16 (≈ 11.8 µM)	16 (≈ 11.8 µM)	2	> 16	MIC range, all tested bacterial strains ([10]; reference panel): 2 to 16 µg/mL; MIC Pae [11]: 8 µg/mL (≈ 5.92 µM); MBC Sau [12]: 32 µg/mL (≈ 23.7 µM); MIC Sau [12]: 16 µg/mL (≈ 11.8 µM); MBC Eco [13]: 16 µg/mL (≈ 11.8 µM); MIC Eco [13]: 16 µg/mL (≈ 11.8 µM); MBC Efa [14]: 8 µg/mL (≈ 5.92 µM); MIC Efa [14]: 4 µg/mL (≈ 2.96 µM); MBC Aba [15]: 16 µg/mL (≈ 11.8 µM); MIC Aba [15]: 2 µg/mL (≈ 1.48 µM); MIC against A. baumannii, in molar units [15]: 1.8 to 7.2 µM; MBC Bsu [16]: 16 µg/mL (≈ 11.8 µM); MIC Bsu [16]: 2 µg/mL (≈ 1.48 µM); MBC Spy [17]: 8 µg/mL (≈ 5.92 µM); MIC Spy [17]: 2 µg/mL (≈ 1.48 µM); Hemolytic activity (in words) [18]: non-hemolytic
CCCCCCCC(=O)NC(C)(C)C(=O)NCC(=O)N[C@@H](CC(C)C)C(=O)NC(C)(C)C(=O)N[C@@H](CCCCN)C(=O)N[C@@H](CCCCN)C(=O)N[C@@H](CC(C)C)C(=O)NC(C)(C)C(=O)NCC(=O)N[C@H](C(=O)N[C@H](CO)CC(C)C)[C@@H](C)CC [Peptide 4, 1-Oct-Aib-Gly-Leu-Aib-Lys-Lys-Leu-Aib-Gly-Ile-Lol]	16 (≈ 13.2 µM)	8 (≈ 6.62 µM)	32 (≈ 26.5 µM)	16 (≈ 13.2 µM)	8 (≈ 6.62 µM)	4 µg/mL (≈ 3.31 µM)	8 (≈ 6.62 µM)	4 (≈ 3.31 µM)	4 (≈ 3.31 µM)	2 (≈ 1.65 µM)	16 (≈ 13.2 µM)	16 (≈ 13.2 µM)	4 (≈ 3.31 µM)	4 μg/mL and 4/4 μg/mL	32 (≈ 26.5 µM)	16 (≈ 13.2 µM)	32 (≈ 26.5 µM)	16 (≈ 13.2 µM)	2	16 (≈ 13.2 µM)	MIC Pae [11]: 8 µg/mL (≈ 6.62 µM); MBC Sau [12]: 16 µg/mL (≈ 13.2 µM); MIC Sau [12]: 16 µg/mL (≈ 13.2 µM); MBC Eco [13]: > 16 µg/mL; MIC Eco [13]: 16 µg/mL (≈ 13.2 µM); MBC Efa [14]: 8 µg/mL and 4 µg/mL; MIC Efa [14]: 2 µg/mL (≈ 1.65 µM); MBC Aba [15]: 2 µg/mL (≈ 1.65 µM); MIC Aba [15]: 2 µg/mL (≈ 1.65 µM); MIC against A. baumannii, in molar units [15]: 1.8 to 7.2 µM; MIC Bsu [16]: 2 µg/mL (≈ 1.65 µM); MBC Spy [17]: 2 µg/mL (≈ 1.65 µM); MIC Spy [17]: 2 µg/mL (≈ 1.65 µM); Hemolytic activity (in words) [18]: non-hemolytic
